According to ChEMBL document CHEMBL4376892, “Identification of Parthenolide Dimers as Activators of Pyruvate Kinase M2 in Xenografts of Glioblastoma Multiforme in Vivo” (J Med Chem, 2020):
Active and inactive are the calls of the source. The calls are words filed in the database; no cut-off is given here.

Columns and labels:
U-87 MG [1] = experiment: Antiproliferative activity against human U87 cells transfected with lentivirus expressing shPKM2 assessed as reduction in cell viability after 24 hrs by MTT assay; assay type: functional, cell-based, U-87MG ATCC
Pyruvate kinase PKM [2] = target: T1, Pyruvate kinase PKM (Homo sapiens, UniProt P14618); experiment: Activation of PKM2 in human U118MG cells assessed as increase in PKM2 tetramer formation at 0.5 to 1 uM after 48 hrs by chemical cross-linking based Western blot analysis; assay type: cell-based
Target sequence in this assay (P14618 2-531 limits assumed): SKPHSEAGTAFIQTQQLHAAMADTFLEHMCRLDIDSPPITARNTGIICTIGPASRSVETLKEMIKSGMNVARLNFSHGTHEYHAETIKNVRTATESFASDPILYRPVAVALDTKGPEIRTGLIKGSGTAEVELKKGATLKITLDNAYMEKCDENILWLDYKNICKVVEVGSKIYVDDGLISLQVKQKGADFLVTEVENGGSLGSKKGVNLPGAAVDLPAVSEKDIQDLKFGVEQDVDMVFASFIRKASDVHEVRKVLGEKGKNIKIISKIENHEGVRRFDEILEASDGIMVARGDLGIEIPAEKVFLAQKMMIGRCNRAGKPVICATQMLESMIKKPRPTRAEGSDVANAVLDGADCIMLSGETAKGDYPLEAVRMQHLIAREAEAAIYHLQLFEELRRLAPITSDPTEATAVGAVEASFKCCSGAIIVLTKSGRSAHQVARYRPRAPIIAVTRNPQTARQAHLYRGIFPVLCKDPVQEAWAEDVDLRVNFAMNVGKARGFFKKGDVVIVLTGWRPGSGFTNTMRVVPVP

Pyruvate kinase PKM [3] = target: T1, Pyruvate kinase PKM; experiment: Activation of PKM2 in human U87 cells assessed as increase in PKM2 tetramer formation at 0.5 to 1 uM after 48 hrs by chemical cross-linking based Western blot analysis; assay type: cell-based; settings: U-87MG ATCC
Target sequence in this assay (P14618 2-531 limits assumed): as above

Pyruvate kinase PKM [4] = target: T1, Pyruvate kinase PKM; experiment: Activation of PKM2 in human U87 cells assessed as reduction in vimentin expression at 1 to 2 uM after 24 hrs by Western blot analysis; assay type: cell-based; settings: U-87MG ATCC
Target sequence in this assay (P14618 2-531 limits assumed): as above

Pyruvate kinase PKM [5] = target: T1, Pyruvate kinase PKM; experiment: Activation of PKM2 in human U118MG cells assessed as inhibition of STAT3 protein expression at 2 uM after 48 hrs by Western blot analysis; assay type: cell-based
Target sequence in this assay (P14618 2-531 limits assumed): as above

U-87 MG [6] = experiment: Antimetastatic activity against human U87 cells assessed as reduction in cell invasion at 2 uM after 24 hrs by crystal violet staining based transwell assay; assay type: functional; settings: U-87MG ATCC
U-118-MG [7] = experiment: Induction of apoptosis in human U118MG cells transfected with lentivirus expressing shNC assessed as necrotic cells after 48 hrs by Annexin-V-FITC/PI-staining based flow cytometric analysis (reference value: 0.418%); assay type: functional
U-118-MG [8] = experiment: Induction of apoptosis in human U118MG cells transfected with lentivirus expressing shNC assessed as viable cells after 48 hrs by Annexin-V-FITC/PI-staining based flow cytometric analysis (reference value: 96.7%); assay type: functional
U-87 MG [9] = experiment: Inhibition of colony formation in human U87 cells after 7 days; assay type: functional, cell-based; settings: U-87MG ATCC
U-118-MG [10] = experiment: Effect on P65 protein expression in human U118MG cells at 0.2 to 0.5 uM after 48 hrs by Western blot analysis; assay type: functional, cell-based
U-118-MG [11] = experiment: Induction of apoptosis in human U118MG cells transfected with lentivirus expressing shPKM2 assessed as necrotic cells after 48 hrs by Annexin-V-FITC/PI-staining based flow cytometric analysis (reference value: 0.105%); assay type: functional
U-87 MG [12] = experiment: Antiproliferative activity against human U87 cells assessed as reduction in cell viability after 72 hrs by MTT assay; assay type: functional, cell-based, U-87MG ATCC
[13] = target: Transcription factor p65 (Homo sapiens) (UniProt Q04206); experiment: Effect on NFkappaB p65 nuclear translocation in human U118MG cells at 0.2 to 0.5 after 48 hrs by Western blot analysis; assay type: cell-based
Pyruvate kinase PKM [14] = target: T1, Pyruvate kinase PKM; experiment: Activation of PKM2 in human U87 cells assessed as reduction in bcl-xl expression at 1 to 2 uM after 48 hrs by Western blot analysis; assay type: cell-based; settings: U-87MG ATCC
Target sequence in this assay (P14618 2-531 limits assumed): as above

U-118-MG [15] = experiment: Antiproliferative activity against human U118MG cells assessed as reduction in cell viability after 72 hrs by MTT assay; assay type: functional, cell-based
Pyruvate kinase PKM [16] = target: T1, Pyruvate kinase PKM; experiment: Activation of PKM2 in human U118MG cells assessed as inhibition of STAT3 phosphorylation at 1 to 2 uM after 24 hrs by Western blot analysis; assay type: cell-based
Target sequence in this assay (P14618 2-531 limits assumed): as above

U-118-MG [17] = experiment: Induction of apoptosis in human U118MG cells assessed as viable cells after 48 hrs by Annexin-V-FITC/PI-staining based flow cytometric analysis (reference value: 96.7%); assay type: functional
U-118-MG [18] = experiment: Antiinvasive activity against human U118MG cells transfected with lentivirus expressing shPKM2 at 2 uM incubated for 48 hrs by crystal violet staining based transwell assay; assay type: functional, cell-based
U-118-MG [19] = experiment: Induction of apoptosis in human U118MG cells transfected with lentivirus expressing shPKM2 assessed as viable cells after 48 hrs by Annexin-V-FITC/PI-staining based flow cytometric analysis (reference value: 97.7%); assay type: functional
Pyruvate kinase PKM [20] = target: T1, Pyruvate kinase PKM; experiment: Activation of PKM2 in human U118MG cells assessed as increase in bax protein expression at 1 to 2 uM after 48 hrs by Western blot analysis; assay type: cell-based
[21] = target: T2, Inhibitor of nuclear factor kappa-B kinase subunit beta (Homo sapiens) (UniProt O14920); experiment: Effect on IKKbeta phosphorylation in human U118MG cells at 0.2 to 0.5 uM after 48 hrs by Western blot analysis; assay type: cell-based
T2 sequence (whole entry): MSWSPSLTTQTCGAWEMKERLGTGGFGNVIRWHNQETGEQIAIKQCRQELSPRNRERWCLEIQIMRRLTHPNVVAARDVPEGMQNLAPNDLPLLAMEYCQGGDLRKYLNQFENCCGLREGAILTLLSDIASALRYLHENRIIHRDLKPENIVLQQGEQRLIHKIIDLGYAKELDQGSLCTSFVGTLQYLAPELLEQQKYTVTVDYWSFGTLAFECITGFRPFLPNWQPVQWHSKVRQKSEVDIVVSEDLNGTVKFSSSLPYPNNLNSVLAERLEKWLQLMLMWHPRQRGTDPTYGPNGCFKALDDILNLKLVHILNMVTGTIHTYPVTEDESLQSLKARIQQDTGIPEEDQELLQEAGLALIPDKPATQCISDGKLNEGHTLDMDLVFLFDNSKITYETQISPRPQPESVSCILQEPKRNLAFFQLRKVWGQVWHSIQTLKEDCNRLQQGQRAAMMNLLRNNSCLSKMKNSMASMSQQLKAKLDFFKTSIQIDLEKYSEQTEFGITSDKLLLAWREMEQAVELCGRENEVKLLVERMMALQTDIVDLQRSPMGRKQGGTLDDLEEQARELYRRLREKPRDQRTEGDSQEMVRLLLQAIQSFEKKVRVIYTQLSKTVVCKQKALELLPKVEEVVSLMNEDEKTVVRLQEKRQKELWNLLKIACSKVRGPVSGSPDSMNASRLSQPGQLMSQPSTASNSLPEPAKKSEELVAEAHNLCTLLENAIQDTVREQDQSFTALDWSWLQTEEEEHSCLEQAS

Pyruvate kinase PKM [22] = target: T1, Pyruvate kinase PKM; experiment: Inhibition of PKM2 dimer nuclear translocation in human U87 cells assessed as reduction in PKM2 accumulation in nucleus at 0.5 to 1 uM after 48 hrs by Western blot analysis; assay type: cell-based; settings: U-87MG ATCC
U-87 MG [23] = experiment: Induction of apoptosis in human U87 cells transfected with lentivirus expressing shPKM2 assessed as late apoptotic cells after 48 hrs by Annexin-V-FITC/PI-staining based flow cytometric analysis (reference value: 1.25%); assay type: functional, U-87MG ATCC
Pyruvate kinase PKM [24] = target: T1, Pyruvate kinase PKM; experiment: Inhibition of PKM2 dimer nuclear translocation in human U118MG cells assessed as reduction in PKM2 accumulation in nucleus at 0.5 to 1 uM after 48 hrs by Western blot analysis; assay type: cell-based
U-87 MG [25] = experiment: Antimetastatic activity against human U87 cells assessed as reduction in cell migration at 2 uM after 24 hrs by crystal violet staining based transwell assay; assay type: functional; settings: U-87MG ATCC
Pyruvate kinase PKM [26] = target: T1, Pyruvate kinase PKM; experiment: Activation of recombinant human N-terminal 6His-tagged PKM2 expressed in Escherichia coli BL21 cells after 50 mins by fluorescence based analysis
Target sequence in this assay (P14618 whole entry): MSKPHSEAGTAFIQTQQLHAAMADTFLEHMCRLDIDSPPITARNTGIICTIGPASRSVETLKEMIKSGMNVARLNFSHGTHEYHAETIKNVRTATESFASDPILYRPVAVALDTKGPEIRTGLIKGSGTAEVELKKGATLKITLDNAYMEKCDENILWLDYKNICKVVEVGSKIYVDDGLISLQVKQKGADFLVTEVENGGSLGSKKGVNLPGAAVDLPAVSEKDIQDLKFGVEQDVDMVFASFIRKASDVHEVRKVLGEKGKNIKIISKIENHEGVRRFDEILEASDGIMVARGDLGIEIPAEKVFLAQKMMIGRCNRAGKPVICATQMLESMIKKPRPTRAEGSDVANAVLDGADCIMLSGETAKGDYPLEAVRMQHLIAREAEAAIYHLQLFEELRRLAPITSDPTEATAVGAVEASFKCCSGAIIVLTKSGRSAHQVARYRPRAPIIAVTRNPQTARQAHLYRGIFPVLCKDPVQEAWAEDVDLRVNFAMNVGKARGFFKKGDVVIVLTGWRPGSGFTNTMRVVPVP

[27] = Antiproliferative activity against human SHG44 cells assessed as reduction in cell viability after 72 hrs by MTT assay; assay type: functional, cell-based; settings: SHG-44, 72 h
HepG2 = experiment: Antiproliferative activity against human HepG2 cells assessed as reduction in cell viability after 72 hrs by MTT assay; assay type: functional, cell-based; settings: HepG2, 72 h
U-87 MG [28] = experiment: Induction of apoptosis in human U87 cells transfected with lentivirus expressing shNC assessed as late apoptotic cells after 48 hrs by Annexin-V-FITC/PI-staining based flow cytometric analysis (reference value: 0.608%); assay type: functional, U-87MG ATCC

Transcription factor p65 (Homo sapiens), sequence (Q04206 whole entry): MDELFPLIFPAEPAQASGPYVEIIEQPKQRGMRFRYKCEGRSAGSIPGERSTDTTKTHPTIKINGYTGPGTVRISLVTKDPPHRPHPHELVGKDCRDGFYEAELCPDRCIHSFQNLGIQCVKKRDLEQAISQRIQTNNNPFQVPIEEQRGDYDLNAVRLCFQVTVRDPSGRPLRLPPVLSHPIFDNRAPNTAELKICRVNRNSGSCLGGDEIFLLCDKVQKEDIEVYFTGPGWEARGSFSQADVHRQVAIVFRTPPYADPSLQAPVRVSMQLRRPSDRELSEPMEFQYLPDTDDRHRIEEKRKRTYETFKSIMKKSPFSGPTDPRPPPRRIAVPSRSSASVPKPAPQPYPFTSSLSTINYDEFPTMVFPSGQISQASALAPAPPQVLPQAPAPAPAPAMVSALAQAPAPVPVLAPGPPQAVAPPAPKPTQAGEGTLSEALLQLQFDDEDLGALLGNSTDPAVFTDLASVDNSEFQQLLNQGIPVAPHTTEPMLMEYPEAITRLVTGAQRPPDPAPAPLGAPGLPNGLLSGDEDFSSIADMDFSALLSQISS

IC50 (U-87 MG [1]): 1.76 µM
Activity (Pyruvate kinase PKM [2]): Active
Activity (Pyruvate kinase PKM [3]): Active
Activity (Pyruvate kinase PKM [4]): Active
Activity (Pyruvate kinase PKM [5]): Active
IC50 (U-87 MG [12]): 3.03 µM
Activity [13]: inactive
Activity (Pyruvate kinase PKM [14]): Active
Activity (Pyruvate kinase PKM [16]): Active
Activity (Pyruvate kinase PKM [20]): Active
Activity [21]: inactive
inhibition (Pyruvate kinase PKM [22]): Active
inhibition (Pyruvate kinase PKM [24]): Active
AC50 (Pyruvate kinase PKM [26]): 0.015 µM
IC50 (HepG2): 10.2 µM
Compound: C=C1C(=O)O[C@H]2[C@H]1CC/C(C(=O)OCCOCCOC(=O)/C1=C/CC[C@@]3(C)O[C@H]3[C@H]3OC(=O)C(=C)[C@@H]3CC1)=C\CC[C@@]1(C)O[C@@H]21
Activity (U-87 MG [6]): Active
Activity (U-118-MG [7]): 1.85%
Activity (U-118-MG [8]): 34.7%
inhibition (U-87 MG [9]): Dose-dependent effect
Activity (U-118-MG [10]): inactive
Activity (U-118-MG [11]): 0.09%
IC50 (U-118-MG [15]): 1.8 µM
Activity (U-118-MG [17]): 12.5%
Activity (U-118-MG [18]): inactive
Activity (U-118-MG [19]): 92.8%
Activity (U-87 MG [23]): 2.76%
Activity (U-87 MG [25]): Active
IC50 [27]: 5.24 µM
Activity (U-87 MG [28]): 3.62%
